Species on record: Rattus norvegicus
Test: Open TG-GATES - Regimen: Daily Repeat
Format: toxicity, organism-based, Sprague-Dawley
Design: regimen Daily Repeat, gender Male, age 6 weeks
Details: in vivo, po, 6 mg/kg, route gavage, dose level Middle; for APTT / Bas / Eos / Fbg / Hb / Lym / MCH / MCHC / MCV / Mono / Neu / PT / Plat / RBC / Ret / WBC: tissue Blood; for KIDNEY_L / KIDNEY_R / KIDNEY_TOTAL: tissue Kidney; for LIVER: tissue Liver; for ALP / ALT / AST / BUN / CRE / Ca / Cl / DBIL / GLC / IP / K / LDH / Na / PL / RALB / TBIL / TC / TG / TP / gamma-GTP: tissue Plasma

Q: Which results are given for `OCCN1CCN(CCCN2c3ccccc3Sc3ccc(C(F)(F)F)cc32)CC1` [FLUPHENAZINE]?
A: TERMINAL_BW (72 h, time 3 day): 198.7 g; APTT (72 h, time 3 day): 15.9 s; Bas (72 h, time 3 day): 0%; Eos (72 h, time 3 day): 0.6%; Fbg (72 h, time 3 day): 227.2 mg/dL; Hb (72 h, time 3 day): 15.1 g/dL; Lym (72 h, time 3 day): 88.4%; MCH (72 h, time 3 day): 21.2 pg; MCHC (72 h, time 3 day): 33.3%; MCV (72 h, time 3 day): 63.7 fL; Mono (72 h, time 3 day): 5.8%; Neu (72 h, time 3 day): 5.2%; PT (72 h, time 3 day): 12.2 s; Plat (72 h, time 3 day): 119.2 x10_4/uL; RBC (72 h, time 3 day): 711.6 x10_4/ul; Ret (72 h, time 3 day): 3.4%; WBC (72 h, time 3 day): 119.1 x10_2/uL; KIDNEY_L (72 h, time 3 day): 0.9 g; KIDNEY_R (72 h, time 3 day): 0.9 g; KIDNEY_TOTAL (72 h, time 3 day): 1.8 g; LIVER (72 h, time 3 day): 9.5 g; ALP (72 h, time 3 day): 909.4 IU/L; ALT (72 h, time 3 day): 35 IU/L; AST (72 h, time 3 day): 58.6 IU/L; BUN (72 h, time 3 day): 24.8 mg/dL; CRE (72 h, time 3 day): 0.6 mg/dL; Ca (72 h, time 3 day): 10.8 mg/dL; Cl (72 h, time 3 day): 106.4 meq/L; DBIL (72 h, time 3 day): 0.008 mg/dL; GLC (72 h, time 3 day): 177.4 mg/dL; IP (72 h, time 3 day): 8 mg/dL; K (72 h, time 3 day): 4.6 meq/L; LDH (72 h, time 3 day): 84.6 IU/L; Na (72 h, time 3 day): 138.4 meq/L; PL (72 h, time 3 day): 186.6 mg/dL; RALB (72 h, time 3 day): 4.3 g/dL; TBIL (72 h, time 3 day): 0.2 mg/dL; TC (72 h, time 3 day): 98.4 mg/dL; TG (72 h, time 3 day): 112.6 mg/dL; TP (72 h, time 3 day): 6.1 g/dL; gamma-GTP (72 h, time 3 day): 0.6 IU/L; TERMINAL_BW ([…], time 7 day): 230.3 g; TERMINAL_BW ([…], time 14 day): 284.3 g; TERMINAL_BW ([…], time 28 day): 346.8 g; APTT ([…], time 7 day): 16.8 s; Bas ([…], time 7 day): 0%; Eos ([…], time 7 day): 0.6%; Fbg ([…], time 7 day): 224.2 mg/dL; Hb ([…], time 7 day): 14 g/dL; Lym ([…], time 7 day): 78.6%; MCH ([…], time 7 day): 21 pg; MCHC ([…], time 7 day): 33.3%; MCV ([…], time 7 day): 63.1 fL; Mono ([…], time 7 day): 5.6%; Neu ([…], time 7 day): 15.2%; PT ([…], time 7 day): 12.1 s; Plat ([…], time 7 day): 82.3 x10_4/uL; RBC ([…], time 7 day): 668.6 x10_4/ul; Ret ([…], time 7 day): 3.6%; WBC ([…], time 7 day): 95.8 x10_2/uL; APTT ([…], time 14 day): 15.9 s; Bas ([…], time 14 day): 0%; Eos ([…], time 14 day): 0.8%; Fbg ([…], time 14 day): 217.2 mg/dL; Hb ([…], time 14 day): 14.4 g/dL; Lym ([…], time 14 day): 79.6%; MCH ([…], time 14 day): 20.1 pg; MCHC ([…], time 14 day): 33.3%; MCV ([…], time 14 day): 60.5 fL; Mono ([…], time 14 day): 5.8%; Neu ([…], time 14 day): 14%; PT ([…], time 14 day): 12.1 s; Plat ([…], time 14 day): 97 x10_4/uL; RBC ([…], time 14 day): 716.4 x10_4/ul; Ret ([…], time 14 day): 3.6%; WBC ([…], time 14 day): 128.9 x10_2/uL; APTT ([…], time 28 day): 17.2 s; Bas ([…], time 28 day): 0%; Eos ([…], time 28 day): 1.2%; Fbg ([…], time 28 day): 209.2 mg/dL; Hb ([…], time 28 day): 15.6 g/dL; Lym ([…], time 28 day): 83%; MCH ([…], time 28 day): 19.7 pg; MCHC ([…], time 28 day): 33.4%; MCV ([…], time 28 day): 58.9 fL; Mono ([…], time 28 day): 5%; Neu ([…], time 28 day): 10.6%; PT ([…], time 28 day): 12.3 s; Plat ([…], time 28 day): 89.8 x10_4/uL; RBC ([…], time 28 day): 792.6 x10_4/ul; Ret ([…], time 28 day): 2.2%; WBC ([…], time 28 day): 134.3 x10_2/uL; KIDNEY_L ([…], time 7 day): 1 g; KIDNEY_R ([…], time 7 day): 1 g; KIDNEY_TOTAL ([…], time 7 day): 2 g; KIDNEY_L ([…], time 14 day): 1.1 g; KIDNEY_R ([…], time 14 day): 1.1 g; KIDNEY_TOTAL ([…], time 14 day): 2.3 g; KIDNEY_L ([…], time 28 day): 1.2 g; KIDNEY_R ([…], time 28 day): 1.2 g; KIDNEY_TOTAL ([…], time 28 day): 2.4 g; LIVER ([…], time 7 day): 10.9 g; LIVER ([…], time 14 day): 11.9 g; LIVER ([…], time 28 day): 13.7 g; ALP ([…], time 7 day): 836 IU/L; ALT ([…], time 7 day): 33 IU/L; AST ([…], time 7 day): 62.6 IU/L; BUN ([…], time 7 day): 18 mg/dL; CRE ([…], time 7 day): 0.5 mg/dL; Ca ([…], time 7 day): 10.5 mg/dL; Cl ([…], time 7 day): 105.2 meq/L; DBIL ([…], time 7 day): 0.012 mg/dL; GLC ([…], time 7 day): 170.6 mg/dL; IP ([…], time 7 day): 8.4 mg/dL; K ([…], time 7 day): 4.8 meq/L; LDH ([…], time 7 day): 79.4 IU/L; Na ([…], time 7 day): 137.4 meq/L; PL ([…], time 7 day): 178.8 mg/dL; RALB ([…], time 7 day): 4.1 g/dL; TBIL ([…], time 7 day): 0.3 mg/dL; TC ([…], time 7 day): 96.4 mg/dL; TG ([…], time 7 day): 106 mg/dL; TP ([…], time 7 day): 6 g/dL; gamma-GTP ([…], time 7 day): 1 IU/L; ALP ([…], time 14 day): 859.2 IU/L; ALT ([…], time 14 day): 29.4 IU/L; AST ([…], time 14 day): 63.2 IU/L; BUN ([…], time 14 day): 18 mg/dL; CRE ([…], time 14 day): 0.5 mg/dL; Ca ([…], time 14 day): 10.7 mg/dL; Cl ([…], time 14 day): 103.6 meq/L; DBIL ([…], time 14 day): 0 mg/dL; GLC ([…], time 14 day): 190.8 mg/dL; IP ([…], time 14 day): 7.8 mg/dL; K ([…], time 14 day): 4.6 meq/L; LDH ([…], time 14 day): 99.2 IU/L; Na ([…], time 14 day): 135.2 meq/L; PL ([…], time 14 day): 141 mg/dL; RALB ([…], time 14 day): 4.2 g/dL; TBIL ([…], time 14 day): 0.3 mg/dL; TC ([…], time 14 day): 68 mg/dL; TG ([…], time 14 day): 109.2 mg/dL; TP ([…], time 14 day): 5.9 g/dL; gamma-GTP ([…], time 14 day): 1.6 IU/L; ALP ([…], time 28 day): 483.8 IU/L; ALT ([…], time 28 day): 32.8 IU/L; AST ([…], time 28 day): 58.6 IU/L; BUN ([…], time 28 day): 21.4 mg/dL; CRE ([…], time 28 day): 0.6 mg/dL; Ca ([…], time 28 day): 10.7 mg/dL; Cl ([…], time 28 day): 107.6 meq/L; DBIL ([…], time 28 day): 0.006 mg/dL; GLC ([…], time 28 day): 175.2 mg/dL; IP ([…], time 28 day): 6.3 mg/dL; K ([…], time 28 day): 4.5 meq/L; LDH ([…], time 28 day): 75 IU/L; Na ([…], time 28 day): 140.4 meq/L; PL ([…], time 28 day): 147 mg/dL; RALB ([…], time 28 day): 4.2 g/dL; TBIL ([…], time 28 day): 0.3 mg/dL; TC ([…], time 28 day): 66.4 mg/dL; TG ([…], time 28 day): 138.8 mg/dL; TP ([…], time 28 day): 6.3 g/dL; gamma-GTP ([…], time 28 day): 1.6 IU/L

From ChEMBL document CHEMBL3885861, “Open TG-GATES”
